From patent publication US20240425490A1, “SULFAMIDE RIBONUCLEOTIDE REDUCTASE (RNR) INHIBITORS AND USES THEREOF” (Boundless Bio, Inc., priority 2021, published 2024) come the findings set out here.

The assay concerns the target T1, RNR (RNR1:RNR2 1:1) (Homo sapiens, UniProt P23921).
T1 sequence (P23921 1-792): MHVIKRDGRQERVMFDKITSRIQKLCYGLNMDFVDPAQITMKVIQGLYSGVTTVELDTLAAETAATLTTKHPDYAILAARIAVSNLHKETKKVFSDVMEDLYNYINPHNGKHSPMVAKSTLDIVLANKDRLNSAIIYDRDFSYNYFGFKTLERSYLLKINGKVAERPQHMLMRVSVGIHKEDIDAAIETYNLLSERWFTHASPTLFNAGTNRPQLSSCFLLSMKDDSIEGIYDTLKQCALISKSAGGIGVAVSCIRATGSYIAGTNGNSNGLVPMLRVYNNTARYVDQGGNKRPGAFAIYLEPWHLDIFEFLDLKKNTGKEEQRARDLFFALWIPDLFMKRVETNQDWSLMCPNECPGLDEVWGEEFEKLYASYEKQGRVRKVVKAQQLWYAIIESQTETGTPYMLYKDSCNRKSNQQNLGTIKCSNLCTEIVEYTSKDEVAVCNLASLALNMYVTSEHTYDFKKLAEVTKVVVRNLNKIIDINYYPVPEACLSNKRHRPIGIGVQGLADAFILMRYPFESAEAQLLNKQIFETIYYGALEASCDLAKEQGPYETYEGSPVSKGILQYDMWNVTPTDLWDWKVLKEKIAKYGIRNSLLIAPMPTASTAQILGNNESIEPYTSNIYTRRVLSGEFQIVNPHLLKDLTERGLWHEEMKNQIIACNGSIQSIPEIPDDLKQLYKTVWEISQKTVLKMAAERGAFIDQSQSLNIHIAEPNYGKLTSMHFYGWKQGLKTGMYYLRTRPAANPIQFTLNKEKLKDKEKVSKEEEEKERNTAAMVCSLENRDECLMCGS
The assay can be described thus: RNR enzyme activity, rapid-fire mass spectrometry (RFMS) assay. As to conditions: RNR 50 nM, CDP 5 μM, ATP 1 mM, 37° C., 45 min, compounds screened up to 50 μM, read-out: RF/MS IC50. It counts as biochemical. The method in brief: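 Human RNR1:RNR2 (1:1, 50 nM) pre-incubated 15 min at room temperature with compound, then reacted with 5 μM CDP and 1 mM ATP, no NADPH, for 45 min at 37 °C. Stopped with 6% HCOOH; turnover read by rapid-fire mass spectrometry; Triapine and hydroxyurea as reference compounds.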
Turning to `Cc1ccc(F)c([C@@H](C)[C@H](NS(=O)(=O)N2CCC(C)(C)CC2)c2n[nH]c(=O)o2)c1C` [Example 113, N-((1S,2R)-2-(6-fluoro-2,3-dimethylphenyl)-1-(5-oxo-4,5-dihydro-1,3,4-oxadiazol-2-yl)propyl)-4,4-dimethyl piperidine-1-sulfonamide], the IC50 was in the range of 0.1 to 1 µM.
Under `Cc1ccc(F)c([C@@H](C)[C@H](NS(=O)(=O)N2CCC3(CCCC3)CC2)c2n[nH]c(=O)o2)c1C` [Example 71, N-((1S,2R)-2-(6-fluoro-2,3-dimethylphenyl)-1-(5-oxo-4,5-dihydro-1,3,4-oxadiazol-2-yl)propyl)-8-azaspiro[4.5]decane-8-sulfonamide] stands 0.1 to 1 µM; under `Cc1ccc(F)c(C(C)[C@H](NS(=O)(=O)N2CCCC2)c2n[nH]c(=O)o2)c1C` (stereo partly drawn) [Example 112, N-((1S)-2-(6-fluoro-2,3-dimethylphenyl)-1-(5-oxo-4,5-dihydro-1,3,4-oxadiazol-2-yl)propyl)pyrrolidine-1-sulfonamide], 1 to 10 µM.
Under `Cc1ccc(F)c([C@@H](C)[C@H](NS(=O)(=O)N2CCC3(CC2)CC(F)(F)C3)c2n[nH]c(=O)o2)c1C` [Example 94, 2,2-difluoro-N-((1S,2R)-2-(6-fluoro-2,3-dimethylphenyl)-1-(5-oxo-4,5-dihydro-1,3,4-oxadiazol-2-yl)propyl)-7-azaspiro[3.5]nonane-7-sulfonamide] stands 0.1 to 1 µM; under `Cc1ccc(F)c(C(C)[C@H](NS(=O)(=O)N2CCC(CN3CCCCC3)CC2)c2n[nH]c(=O)o2)c1C` (stereo partly drawn) [Example 62, N-((1S)-2-(6-fluoro-2,3-dimethylphenyl)-1-(5-oxo-4,5-dihydro-1,3,4-oxadiazol-2-yl)propyl)-4-(piperidin-1-ylmethyl)piperidine-1-sulfonamide], 10 to 100 µM; under `CC(=O)NC1CCN(S(=O)(=O)N[C@H](c2n[nH]c(=O)o2)C(C)c2c(F)ccc(C)c2C)CC1` (stereo partly drawn) [Example 29, N-(1-(N-((1S)-2-(6-fluoro-2,3-dimethylphenyl)-1-(5-oxo-4,5-dihydro-1,3,4-oxadiazol-2-yl)propyl)sulfamoyl)piperidin-4-yl)acetamide], 10 to 100 µM.
Under `Cc1ccc(F)c(C(C)[C@H](NS(=O)(=O)N2CCC(C3NC(=O)NC3=O)CC2)c2n[nH]c(=O)o2)c1C` (stereo partly drawn) [Example 60, 4-(2,5-dioxoimidazolidin-4-yl)-N-((1S)-2-(6-fluoro-2,3-dimethylphenyl)-1-(5-oxo-4,5-dihydro-1,3,4-oxadiazol-2-yl)propyl)piperidine-1-sulfonamide] stands 0.1 to 1 µM.
For `Cc1ccc(F)c([C@@H](C)[C@H](NS(=O)(=O)N2CCC(N3CCCC3)CC2)c2n[nH]c(=O)o2)c1C` [Example 50, N-((1S,2R)-2-(6-fluoro-2,3-dimethylphenyl)-1-(5-oxo-4,5-dihydro-1,3,4-oxadiazol-2-yl)propyl)-4-(pyrrolidin-1-yl)piperidine-1-sulfonamide], the IC50 lay within 10 to 100 µM.
On to `Cc1ccc(F)c([C@@H](C)[C@H](NS(=O)(=O)N2CCC3(CCNC3=O)CC2)c2n[nH]c(=O)o2)c1C` [Example 59, N-((1S,2R)-2-(6-fluoro-2,3-dimethylphenyl)-1-(5-oxo-4,5-dihydro-1,3,4-oxadiazol-2-yl)propyl)-1-oxo-2,8-diazaspiro[4.5]decane-8-sulfonamide], for which the IC50 was 10 to 100 µM.
Regarding `Cc1ccc(F)c([C@@H](C)[C@H](NS(=O)(=O)N2CCC(F)(F)CC2)c2n[nH]c(=O)o2)c1C` [Example 1, 4,4-difluoro-N-((1S,2R)-2-(6-fluoro-2,3-dimethylphenyl)-1-(5-oxo-4,5-dihydro-1,3,4-oxadiazol-2-yl)propyl)piperidine-1-sulfonamide], the IC50 was in the range of 0.1 to 1 µM.
Under `CCN(CC1CC1)S(=O)(=O)N[C@H](c1n[nH]c(=O)o1)[C@H](C)c1c(F)ccc(C)c1C` [Example 118] stands 1 to 10 µM; under `Cc1ccc(F)c([C@H](C)[C@H](NS(=O)(=O)N2CCC(C)(C#N)CC2)c2n[nH]c(=O)o2)c1C` [Example 82, 4-cyano-N-((1S,2S)-2-(6-fluoro-2,3-dimethylphenyl)-1-(5-oxo-4,5-dihydro-1,3,4-oxadiazol-2-yl)propyl)-4-methylpiperidine-1-sulfonamide], 1 to 10 µM; under `Cc1ccc(F)c([C@@H](C)[C@H](NS(=O)(=O)N2CCC(Br)CC2)c2n[nH]c(=O)o2)c1C` [Example 100, 4-bromo-N-((1S,2R)-2-(6-fluoro-2,3-dimethylphenyl)-1-(5-oxo-4,5-dihydro-1,3,4-oxadiazol-2-yl)propyl)piperidine-1-sulfonamide], 0.1 to 1 µM.
Under `Cc1ccc(F)c(C(C)[C@H](NS(=O)(=O)N2CCC3(CCC(=O)N3C)CC2)c2n[nH]c(=O)o2)c1C` (stereo partly drawn) [Example 93, N-((1S)-2-(6-fluoro-2,3-dimethylphenyl)-1-(5-oxo-4,5-dihydro-1,3,4-oxadiazol-2-yl)propyl)-1-methyl-2-oxo-1,8-diazaspiro[4.5]decane-8-sulfonamide] stands 1 to 10 µM; under “4-(3-azabicyclo[3.1.0]hexan-3-yl)-N-((1S,2R)-2-(6-fluoro-2,3-dimethylphenyl)-1-(5-oxo-4,5-dihydro-1,3,4-oxadiazol-2-yl)propyl)piperidine-1-sulfonamide [Example 105]”, 1 to 10 µM.
Regarding `Cc1ccc(F)c(C(C)[C@H](NS(=O)(=O)N2CCCC(C#N)C2)c2n[nH]c(=O)o2)c1C` (stereo partly drawn) [Example 26, 3-cyano-N-((1S)-2-(6-fluoro-2,3-dimethylphenyl)-1-(5-oxo-4,5-dihydro-1,3,4-oxadiazol-2-yl)propyl)piperidine-1-sulfonamide], the IC50 is 1 to 10 µM.
To `Cc1ccc(F)c(C(C)[C@H](NS(=O)(=O)N2CCC(OC(F)(F)F)CC2)c2n[nH]c(=O)o2)c1C` (stereo partly drawn) [Example 46, N-((1S)-2-(6-fluoro-2,3-dimethylphenyl)-1-(5-oxo-4,5-dihydro-1,3,4-oxadiazol-2-yl)propyl)-4-(trifluoromethoxy)piperidine-1-sulfonamide] belongs 1 to 10 µM.
To `Cc1ccc(F)c([C@H](C)[C@H](NS(=O)(=O)N2CCC3(CC2)OCCO3)c2n[nH]c(=O)o2)c1C` [Example 134, N-((1S,2S)-2-(6-fluoro-2,3-dimethylphenyl)-1-(5-oxo-4,5-dihydro-1,3,4-oxadiazol-2-yl)propyl)-1,4-dioxa-8-azaspiro[4.5]decane-8-sulfonamide] belongs 0.1 to 1 µM; to `Cc1ccc(F)c([C@@H](C)[C@H](NS(=O)(=O)N2CCCc3ccccc32)c2n[nH]c(=O)o2)c1C` [Example 109, N-((1S,2R)-2-(6-fluoro-2,3-dimethylphenyl)-1-(5-oxo-4,5-dihydro-1,3,4-oxadiazol-2-yl)propyl)-3,4-dihydroquinoline-1(2H)-sulfonamide], 1 to 10 µM; to `Cc1ccc(F)c([C@H](C)[C@H](NS(=O)(=O)N2CC(C)CC(C)C2)c2n[nH]c(=O)o2)c1C` (stereo partly drawn) [Example 122, N-((1S,2S)-2-(6-fluoro-2,3-dimethylphenyl)-1-(5-oxo-4,5-dihydro-1,3,4-oxadiazol-2-yl)propyl)-3,5-dimethylpiperidine-1-sulfonamide], 1 to 10 µM.
Under `Cc1ccc(F)c([C@@H](C)[C@H](NS(=O)(=O)N2CCC(C)(C#N)CC2)c2n[nH]c(=O)o2)c1C` [Example 81, 4-cyano-N-((1S,2R)-2-(6-fluoro-2,3-dimethylphenyl)-1-(5-oxo-4,5-dihydro-1,3,4-oxadiazol-2-yl)propyl)-4-methylpiperidine-1-sulfonamide] stands 0.1 to 1 µM; under `CNC(=O)C1CCN(S(=O)(=O)N[C@H](c2n[nH]c(=O)o2)[C@H](C)c2c(F)ccc(C)c2C)CC1` [Example 57, 1-(N-((1S,2R)-2-(6-fluoro-2,3-dimethylphenyl)-1-(5-oxo-4,5-dihydro-1,3,4-oxadiazol-2-yl)propyl)sulfamoyl)-N-methylpiperidine-4-carboxamide], 1 to 10 µM.
With `Cc1ccc(F)c([C@H](C)[C@H](NS(=O)(=O)N2CCC[C@](C)(O)C2)c2n[nH]c(=O)o2)c1C` [Example 21, (S)-N-((1S,2S)-2-(6-fluoro-2,3-dimethylphenyl)-1-(5-oxo-4,5-dihydro-1,3,4-oxadiazol-2-yl)propyl)-3-hydroxy-3-methylpiperidine-1-sulfonamide], the IC50 lay in the range of 1 to 10 µM.
To `Cc1ccc(F)c([C@@H](C)[C@H](NS(=O)(=O)N2CCc3cc(Cl)ccc3C2)c2n[nH]c(=O)o2)c1C` [Example 107, 6-chloro-N-((1S,2R)-2-(6-fluoro-2,3-dimethylphenyl)-1-(5-oxo-4,5-dihydro-1,3,4-oxadiazol-2-yl)propyl)-3,4-dihydroisoquinoline-2(1H)-sulfonamide] belongs 0.1 to 1 µM.
